In ChEMBL document CHEMBL4376805, “Plasmodium Purine Metabolism and Its Inhibition by Nucleoside and Nucleotide Analogues” (J Med Chem, 2019):

What was measured:
[1] = tested on: Plasmodium falciparum; assay: Antimalarial activity against Plasmodium falciparum; format: functional; details: read-out: ID50 (the source's name)
[2] = Inhibition of Plasmodium vivax HGPRT using Prib-PP as substrate by Hanes-plot based method
[3] = target: T1, Hypoxanthine-guanine phosphoribosyltransferase (Homo sapiens, UniProt P00492)
T1 sequence (P00492 whole entry): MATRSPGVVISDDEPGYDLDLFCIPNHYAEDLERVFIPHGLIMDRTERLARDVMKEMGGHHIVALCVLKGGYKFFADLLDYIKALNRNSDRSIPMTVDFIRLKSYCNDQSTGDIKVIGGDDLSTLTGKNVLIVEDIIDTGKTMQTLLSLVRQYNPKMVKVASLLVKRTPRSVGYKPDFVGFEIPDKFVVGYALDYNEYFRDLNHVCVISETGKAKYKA
Description: Inhibition of human HGPRT using Prib-PP as substrate by Hanes-plot based method

[4] = Inhibition of Plasmodium falciparum HGXPRT using Prib-PP as substrate by Hanes-plot based method
[5] = tested on: Plasmodium falciparum; assay: microbe, parasite or virus in culture; details: 3D7
Description: Antimalarial activity against Plasmodium falciparum 3D7 infected in human erythrocytes assessed as reduction in [3H]ethanolamine incorporation incubated for 18 hrs followed by addition of [3H]ethanolamine and measured after 48 hrs by scintillation counting method

[6] = tested on: Plasmodium falciparum; assay: Antimalarial activity against synchronized Plasmodium falciparum K1 ring form infected in human erythrocytes assessed as reduction in parasite growth after 72 hrs by Hoechst 33258 staining based fluorescence assay; format: functional, organism-based; details: K1, 72 h
[7] = target: T2, Purine nucleoside phosphorylase (Plasmodium falciparum, UniProt Q8T9Z7)
T2 sequence (Q8T9Z7 whole entry): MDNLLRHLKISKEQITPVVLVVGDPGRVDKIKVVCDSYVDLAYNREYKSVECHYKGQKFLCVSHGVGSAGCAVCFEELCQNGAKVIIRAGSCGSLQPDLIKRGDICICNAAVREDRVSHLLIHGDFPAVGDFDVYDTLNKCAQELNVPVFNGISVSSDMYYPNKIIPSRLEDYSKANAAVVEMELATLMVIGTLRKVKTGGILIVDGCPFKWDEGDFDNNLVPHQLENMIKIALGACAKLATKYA
Description: Inhibition of Plasmodium falciparum His-tagged PNP assessed as inhibitor constant for enzyme-inhibitor-substrate complex formation

[8] = target: T3, Purine nucleoside phosphorylase (Homo sapiens, UniProt P00491)
T3 sequence (P00491 whole entry): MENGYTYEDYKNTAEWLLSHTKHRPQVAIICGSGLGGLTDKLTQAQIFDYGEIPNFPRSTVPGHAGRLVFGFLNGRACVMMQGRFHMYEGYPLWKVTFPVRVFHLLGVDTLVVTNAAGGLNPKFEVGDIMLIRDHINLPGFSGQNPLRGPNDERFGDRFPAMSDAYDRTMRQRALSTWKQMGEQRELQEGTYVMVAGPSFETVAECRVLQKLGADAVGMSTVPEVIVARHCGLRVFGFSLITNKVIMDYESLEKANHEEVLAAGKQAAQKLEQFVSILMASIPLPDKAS
Description: Inhibition of human PNP assessed as inhibitor constant for enzyme-inhibitor-substrate complex formation

[9] = tested on: Plasmodium falciparum; assay: Antimalarial activity against Plasmodium falciparum D6 assessed as reduction in parasite growth preincubated for 48 hrs followed by addition of [3H]Hypoxanthine and measured after 48 hrs by [3H]Hypoxanthine incorporation assay; format: functional, organism-based
[10] = tested on: Plasmodium falciparum; assay: Antimalarial activity against chloroquine/ pyrimethamine-resitant Plasmodium falciparum W2 assessed as reduction in parasite growth preincubated for 48 hrs followed by addition of [3H]Hypoxanthine and measured after 48 hrs by [3H]Hypoxanthine incorporation assay; format: functional, organism-based
[11] = Inhibition of Plasmodium falciparum HGXPRT expressed in Escherichia coli BL21 (DE3) assessed as inhibitor constant for enzyme-inhibitor-substrate complex formation using [5'-14C]IMP as substrate by scintillation counting method
[12] = Inhibition of Plasmodium falciparum N-terminal His6-tagged HGXPRT using Prib-PP as substrate by Hanes-plot based method
[13] = target: T1, Hypoxanthine-guanine phosphoribosyltransferase; assay: Inhibition of human N-terminal His6-tagged HGPRT using Prib-PP as substrate by Hanes-plot based method
[14] = target: T4, Adenosine deaminase (Plasmodium falciparum, UniProt Q86GS5); assay: Inhibition of Plasmodium falciparum N-terminal thrombin cleavable His6-tagged ADA expressed in Escherichia coli BL21 assessed as reduction in formation of inosine using adenosine as substrate
T4 sequence (Q86GS5 whole entry): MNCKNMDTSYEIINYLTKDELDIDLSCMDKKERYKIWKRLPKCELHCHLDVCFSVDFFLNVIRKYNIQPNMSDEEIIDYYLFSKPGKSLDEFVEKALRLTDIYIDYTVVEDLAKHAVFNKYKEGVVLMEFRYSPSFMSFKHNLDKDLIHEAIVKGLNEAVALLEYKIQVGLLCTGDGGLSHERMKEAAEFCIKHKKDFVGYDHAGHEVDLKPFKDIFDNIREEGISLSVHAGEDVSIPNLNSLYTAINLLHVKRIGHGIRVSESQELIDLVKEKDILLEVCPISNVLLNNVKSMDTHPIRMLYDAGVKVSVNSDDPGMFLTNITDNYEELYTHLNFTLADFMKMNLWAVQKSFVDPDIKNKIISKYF

[15] = target: T4, Adenosine deaminase; assay: Inhibition of Plasmodium falciparum ADA assessed as reduction in formation of ammonia using adenosine as substrate incubated for 15 mins by spectrophotometric analysis
[16] = target: T4, Adenosine deaminase; assay: Inhibition of Plasmodium falciparum N-terminal thrombin cleavable His6-tagged ADA expressed in Escherichia coli BL21 assessed as equilibrium dissociation constant by measuring reduction in formation of inosine using adenosine as substrate
[17] = tested on: Plasmodium falciparum; assay: Antimalarial activity against Plasmodium falciparum FCQ-27 isolate infected in erythrocytes assessed as reduction in [G-3H]Hypoxanthine incorporation incubated for 24 hrs followed by addition of [G-3H]Hypoxanthine and measured after 18 to 20 hrs by scintillation counting method; format: functional
[18] = tested on: Plasmodium falciparum; assay: Antimalarial activity against multi drug-resistant Plasmodium falciparum K1 assessed as reduction in parasite growth [3H]Hypoxanthine incorporation assay; format: functional; details: read-out: ID50 (the source's name)
[19] = substrate: O=c1[nH]cnc2c1ncn2[C@@H]1O[C@H](CO)[C@@H](O)[C@H]1O; assay: Binding affinity to Plasmodium falciparum His-tagged PNP assessed as catalytic rate by measuring uric acid formation
[20] = substrate: O=c1[nH]cnc2c1ncn2[C@@H]1O[C@H](CO)[C@@H](O)[C@H]1O; assay: Binding affinity to human PNP assessed as catalytic rate by measuring uric acid formation

Nc1ncnc2c1ncn2[C@@H]1C[C@@H](OP(=O)(O)OC[C@H]2O[C@@H](n3cc(F)c(=O)[nH]c3=O)C[C@@H]2O)[C@H](CO)O1
IC50 [1]: 5 µM

Nc1nc2c(ncn2C[C@H](CO)n2cc(P(=O)(O)O)nn2)c(=O)[nH]1
Ki [2]: 1 to 6 µM
Ki [3]: 0.1 µM
Ki [4]: 1 to 6 µM

O=c1[nH]cnc2c([C@@H]3N[C@H](CO)[C@@H](O)[C@H]3O)c[nH]c12 [FORODESINE]
IC50 [5]: 0.063 µM

Nc1nccc2c1ncn2C[C@@H](CO)OCP(=O)(O)O
IC50 [6]: 0.29 µM

Nc1nc2c([C@@H]3N[C@H](CO)[C@@H](O)[C@H]3O)c[nH]c2c(=O)[nH]1
Ki [7]: 0.0009 µM
Ki [8]: 0.029 µM

CCOC(=O)[C@H](Cc1ccccc1)NP(=O)(CCO[C@H](CO)Cn1cnc2c(=O)[nH]c(N)nc21)N[C@@H](Cc1ccccc1)C(=O)OCC
IC50 [9]: 22 to 70 µM
IC50 [10]: 22 to 70 µM

O=c1[nH]cnc2c([C@@H]3N[C@H](COP(=O)(O)O)[C@@H](O)[C@H]3O)c[nH]c12
Ki [11]: 0.001 µM

Nc1nc2c(ncn2[C@@H]2CN(C(=O)CCP(=O)(O)O)C[C@H]2OC[C@@H](O)P(=O)(O)O)c(=O)[nH]1
Ki [2]: 0.008 µM
Ki [4]: 0.007 µM

Nc1nc(N)c2ncn(C[C@@H](CO)OCP(=O)(O)O)c2n1
IC50 [6]: 2.1 µM

Nc1ncnc2c1ncn2CCOCP(=O)(O)O [ADEFOVIR]
IC50 [6]: > 250 µM

Nc1nc(N)c2ncn(C[C@H](CO)OCP(=O)(O)O)c2n1
IC50 [6]: 15 µM

O=C(CCP(=O)(O)O)N1C[C@@H](n2cnc3c(O)ncnc32)[C@H](OC[C@@H](O)P(=O)(O)O)C1
Ki [2]: 0.006 µM
Ki [4]: 0.002 µM

O=c1[nH]c(=O)c2ncn(C[C@H](CO)n3cc(P(=O)(O)O)nn3)c2[nH]1
Ki [3]: > 500 µM
Ki [4]: 2 µM

CCOC(=O)[C@H](Cc1ccccc1)NP(=O)(CCO[C@@H](Cn1cnc2c(=O)[nH]c(N)nc21)C(=O)OC)N[C@@H](Cc1ccccc1)C(=O)OCC
IC50 [9]: 50 µM
IC50 [10]: 50 µM

CC(C)(C)C(=O)OCOP(=O)(COCCn1cnc2c(N)ncnc21)OCOC(=O)C(C)(C)C [ADEFOVIR DIPIVOXIL]
IC50 [6]: 37.3 µM

Nc1ncnc2c1ncn2C[C@@H](CO)OCP(=O)(O)O
IC50 [6]: 0.18 µM

Nc1nc2c(ncn2C[C@@H](CO)OCCP(=O)(O)O)c(=O)[nH]1
Ki [12]: 0.1 µM
Ki [13]: 0.6 µM

OC[C@H]1O[C@@H](n2cnc3c2N=CNC[C@H]3O)[C@H](O)[C@@H]1O [COFORMYCIN]
Ki [14]: 0.00068 µM
Ki [15]: 0.25 nM
Ki [16]: 0.08 nM

O=c1[nH]cnc2c1ncn2C[C@H](CO)n1cc(P(=O)(O)O)nn1
Ki [2]: > 100 µM
Ki [3]: 8 µM
Ki [4]: 3 µM

Nc1nc2c(ncn2[C@H]2CCN(C(=O)CP(=O)(O)O)C2)c(=O)[nH]1
Ki [2]: 2600 µM
Ki [3]: 73000 µM
Ki [4]: 400 µM

NC(=O)c1cn([C@@H]2O[C@H](CO)[C@@H](O)[C@H]2O)c2ncnc(N)c12 [SANGIVAMYCIN]
IC37 [17]: 0.3 µM
IC50 [1]: 25 µM

CCOC(=O)[C@H](Cc1ccccc1)NP(=O)(CCO[C@@H](Cn1cnc2c(=O)[nH]cnc21)C(=O)OC)N[C@@H](Cc1ccccc1)C(=O)OCC
IC50 [9]: 50 µM
IC50 [10]: 50 µM

Nc1nc2c(ncn2C[C@@H](CO)n2cc(P(=O)(O)O)nn2)c(=O)[nH]1
Ki [2]: 2 µM
Ki [3]: 0.4 µM
Ki [4]: 2 µM

CCOC(=O)[C@H](Cc1ccccc1)NP(N)(=O)CCO[C@H](CO)Cn1cnc2c(=O)[nH]c(N)nc21 (stereo partly specified)
IC50 [9]: > 250 µM
IC50 [10]: > 250 µM

Nc1ncnc2c1ccn2[C@@H]1O[C@H](CO)[C@@H](O)[C@H]1O [TUBERCIDIN]
IC37 [17]: 0.7 µM

Nc1nc(SCc2ccc([N+](=O)[O-])cc2)c2ncn([C@@H]3O[C@H](CO)[C@@H](O)[C@H]3O)c2n1
IC50 [18]: 4.5 µM

CNc1ncnc2c1ncn2[C@H]1C[C@H](O)[C@@H](CO)O1
IC37 [17]: 10 µM

Nc1nc2c(nc(Br)n2C[C@@H](CO)OCCP(=O)(O)O)c(=O)[nH]1
Ki [12]: > 30 µM
Ki [13]: 13 µM

Nc1ncnc2c1ncn2C[C@H](CO)OCP(=O)(O)O
IC50 [6]: 6 µM

Nc1nccc2c1ncn2C[C@H](CO)OCP(=O)(O)O
IC50 [6]: 100 µM

OC[C@H]1O[C@@H](n2cnc3c2NC=NC[C@@H]3O)[C@H](O)[C@@H]1O
Ki [15]: 0.007 nM

O=[N+]([O-])c1ccc(CSc2ncnc3c2ncn3[C@@H]2O[C@H](CO)[C@@H](O)[C@H]2O)cc1 [NITROBENZYLMERCAPTOPURINE RIBONUCLEOSIDE]
IC50 [18]: 4.2 µM

Nc1nc(Cl)nc2c1ncn2[C@@H]1O[C@H](CO)[C@@H](O)[C@H]1O
IC37 [17]: 11 µM

CCOC(=O)[C@H](Cc1ccccc1)NP(N)(=O)CCO[C@H](CO)Cn1cnc2c(=O)[nH]cnc21 (stereo partly specified)
IC50 [9]: > 250 µM
IC50 [10]: > 250 µM

Nc1ncnc2c1ncn2[C@H]1O[C@@H](CO)[C@H](OP(=O)(O)OC[C@H]2O[C@@H](n3cc(F)c(=O)[nH]c3=O)C[C@@H]2O)[C@@H]1O
IC50 [1]: 4 µM

COC(=O)[C@H](Cn1cnc2c(=O)[nH]cnc21)OCCP(=O)(O)O
Ki [12]: 1 µM
Ki [13]: 6 µM

B1: Purine nucleoside phosphorylase (Plasmodium falciparum), Q8T9Z7 (protein)
chain: MDNLLRHLKISKEQITPVVLVVGDPGRVDKIKVVCDSYVDLAYNREYKSVECHYKGQKFLCVSHGVGSAGCAVCFEELCQNGAKVIIRAGSCGSLQPDLIKRGDICICNAAVREDRVSHLLIHGDFPAVGDFDVYDTLNKCAQELNVPVFNGISVSSDMYYPNKIIPSRLEDYSKANAAVVEMELATLMVIGTLRKVKTGGILIVDGCPFKWDEGDFDNNLVPHQLENMIKIALGACAKLATKYA
kcat [19]: 0.34 s⁻¹

B2: Purine nucleoside phosphorylase (Homo sapiens), P00491 (protein)
chain: MENGYTYEDYKNTAEWLLSHTKHRPQVAIICGSGLGGLTDKLTQAQIFDYGEIPNFPRSTVPGHAGRLVFGFLNGRACVMMQGRFHMYEGYPLWKVTFPVRVFHLLGVDTLVVTNAAGGLNPKFEVGDIMLIRDHINLPGFSGQNPLRGPNDERFGDRFPAMSDAYDRTMRQRALSTWKQMGEQRELQEGTYVMVAGPSFETVAECRVLQKLGADAVGMSTVPEVIVARHCGLRVFGFSLITNKVIMDYESLEKANHEEVLAAGKQAAQKLEQFVSILMASIPLPDKAS
kcat [20]: 56 s⁻¹
